From ChEMBL document CHEMBL1255512, “Pyrazolo[1,5-a]pyrimidine acetamides: 4-Phenyl alkyl ether derivatives as potent ligands for the 18 kDa translocator protein (TSPO)” (Bioorg Med Chem Lett, 2010)

Columns and labels:
[1] = target: T1, Muscarinic acetylcholine receptor M4 (Homo sapiens) (UniProt P08173); assay: Inhibition of M4 muscarinic receptor at 10 uM
T1 sequence (whole entry): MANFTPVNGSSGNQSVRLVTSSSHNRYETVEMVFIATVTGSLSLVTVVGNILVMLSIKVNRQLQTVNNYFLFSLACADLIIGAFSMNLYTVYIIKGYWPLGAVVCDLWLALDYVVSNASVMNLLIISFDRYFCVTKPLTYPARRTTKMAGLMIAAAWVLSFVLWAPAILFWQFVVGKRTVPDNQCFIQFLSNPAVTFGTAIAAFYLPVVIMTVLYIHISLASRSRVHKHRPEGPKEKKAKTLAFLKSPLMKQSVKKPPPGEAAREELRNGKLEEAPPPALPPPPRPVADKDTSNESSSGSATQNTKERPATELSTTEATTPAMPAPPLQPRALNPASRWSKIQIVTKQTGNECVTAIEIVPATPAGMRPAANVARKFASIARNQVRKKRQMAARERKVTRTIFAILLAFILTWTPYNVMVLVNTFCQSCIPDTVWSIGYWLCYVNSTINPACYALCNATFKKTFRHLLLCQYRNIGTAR

[2] = target: 5-hydroxytryptamine receptor 2B (Homo sapiens, UniProt P41595); assay: Inhibition of 5-HT2B receptor at 10 uM
[3] = target: Sodium-dependent serotonin transporter (Homo sapiens) (UniProt P31645); assay: Inhibition of 5HT transporter at 10 uM
[4] = target: 5-hydroxytryptamine receptor 1B (Homo sapiens, UniProt P28222); assay: Inhibition of 5-HT1B receptor
[5] = target: D(1B) dopamine receptor (Homo sapiens) (UniProt P21918); assay: Inhibition of D5 dopamine receptor at 10 uM
[6] = target: Beta-1 adrenergic receptor (Homo sapiens) (UniProt P08588); assay: Inhibition of beta-1 adrenergic receptor at 10 uM
[7] = target: T2, Muscarinic acetylcholine receptor M2 (Homo sapiens) (UniProt P08172); assay: Inhibition of M2 muscarinic receptor at 10 uM
T2 sequence (whole entry): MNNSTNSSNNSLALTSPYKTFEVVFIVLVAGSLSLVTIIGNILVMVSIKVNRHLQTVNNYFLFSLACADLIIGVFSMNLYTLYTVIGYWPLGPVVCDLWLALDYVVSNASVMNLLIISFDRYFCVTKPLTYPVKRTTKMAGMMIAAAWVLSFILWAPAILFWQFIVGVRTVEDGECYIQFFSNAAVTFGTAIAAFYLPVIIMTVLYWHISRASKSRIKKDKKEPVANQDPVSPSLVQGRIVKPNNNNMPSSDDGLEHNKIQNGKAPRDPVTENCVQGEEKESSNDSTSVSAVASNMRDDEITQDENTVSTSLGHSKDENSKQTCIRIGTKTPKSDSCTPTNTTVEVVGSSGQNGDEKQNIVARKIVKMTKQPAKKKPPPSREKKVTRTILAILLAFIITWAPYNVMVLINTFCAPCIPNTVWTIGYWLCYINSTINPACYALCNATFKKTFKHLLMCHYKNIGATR

[8] = target: Histamine H4 receptor (Homo sapiens) (UniProt Q9H3N8); assay: Inhibition of H4 receptor at 10 uM
[9] = target: T3, Alpha-2C adrenergic receptor (Homo sapiens) (UniProt P18825); assay: Inhibition of Alpha-2C adrenergic receptor at 10 uM
T3 sequence (whole entry): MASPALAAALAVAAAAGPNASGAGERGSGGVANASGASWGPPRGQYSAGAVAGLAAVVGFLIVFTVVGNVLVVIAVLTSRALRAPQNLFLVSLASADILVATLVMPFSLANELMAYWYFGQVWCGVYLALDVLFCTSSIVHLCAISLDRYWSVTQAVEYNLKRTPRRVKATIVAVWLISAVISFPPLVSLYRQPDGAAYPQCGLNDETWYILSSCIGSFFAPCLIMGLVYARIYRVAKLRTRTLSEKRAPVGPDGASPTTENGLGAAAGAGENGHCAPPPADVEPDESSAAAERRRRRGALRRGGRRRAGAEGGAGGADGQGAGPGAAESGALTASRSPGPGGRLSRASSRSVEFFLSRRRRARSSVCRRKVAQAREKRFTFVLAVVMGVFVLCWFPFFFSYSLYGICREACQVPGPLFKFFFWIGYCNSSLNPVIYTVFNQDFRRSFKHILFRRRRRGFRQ

[10] = target: 5-hydroxytryptamine receptor 5A (Homo sapiens) (UniProt P47898); assay: Inhibition of 5-HT5A receptor at 10 uM
[11] = target: Sodium-dependent noradrenaline transporter (Homo sapiens) (UniProt P23975); assay: Inhibition of norepinephrine receptor at 10 uM
[12] = target: Sodium-dependent dopamine transporter (Homo sapiens) (UniProt Q01959); assay: Inhibition of dopamine transporter at 10 uM
[13] = target: 5-hydroxytryptamine receptor 1E (Homo sapiens) (UniProt P28566); assay: Inhibition of 5HT1E receptor at 10 uM
[14] = Displacement of [3H]Ro151788 from CBR in rat […]; type: tissue-based
[15] = target: Histamine H2 receptor (Homo sapiens) (UniProt P25021); assay: Inhibition of H2 receptor at 10 uM
[16] = target: 5-hydroxytryptamine receptor 7 (Homo sapiens) (UniProt P34969); assay: Inhibition of 5-HT7 receptor at 10 uM
[17] = target: T4, Alpha-1B adrenergic receptor (Homo sapiens) (UniProt P35368); assay: Inhibition of Alpha-1B adrenergic receptor at 10 uM
T4 sequence (whole entry): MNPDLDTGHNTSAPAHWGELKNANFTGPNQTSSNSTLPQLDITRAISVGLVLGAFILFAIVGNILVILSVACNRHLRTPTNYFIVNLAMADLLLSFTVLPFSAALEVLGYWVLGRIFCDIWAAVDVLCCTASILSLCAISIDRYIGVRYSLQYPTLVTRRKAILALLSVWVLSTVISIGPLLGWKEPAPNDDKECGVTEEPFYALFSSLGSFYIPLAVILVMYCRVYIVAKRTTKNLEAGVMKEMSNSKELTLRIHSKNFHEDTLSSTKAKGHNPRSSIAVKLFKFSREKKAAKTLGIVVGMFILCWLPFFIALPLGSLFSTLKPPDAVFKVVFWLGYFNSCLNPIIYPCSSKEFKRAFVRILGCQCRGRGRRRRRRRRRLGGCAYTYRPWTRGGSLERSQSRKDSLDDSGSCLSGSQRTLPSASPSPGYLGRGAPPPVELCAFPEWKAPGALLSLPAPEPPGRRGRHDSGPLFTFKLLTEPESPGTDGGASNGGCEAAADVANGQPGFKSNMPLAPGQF

[18] = target: D(1A) dopamine receptor (Homo sapiens) (UniProt P21728); assay: Inhibition of D1 dopamine receptor at 10 uM
Chain of D(1A) dopamine receptor (Homo sapiens) (P21728 whole entry): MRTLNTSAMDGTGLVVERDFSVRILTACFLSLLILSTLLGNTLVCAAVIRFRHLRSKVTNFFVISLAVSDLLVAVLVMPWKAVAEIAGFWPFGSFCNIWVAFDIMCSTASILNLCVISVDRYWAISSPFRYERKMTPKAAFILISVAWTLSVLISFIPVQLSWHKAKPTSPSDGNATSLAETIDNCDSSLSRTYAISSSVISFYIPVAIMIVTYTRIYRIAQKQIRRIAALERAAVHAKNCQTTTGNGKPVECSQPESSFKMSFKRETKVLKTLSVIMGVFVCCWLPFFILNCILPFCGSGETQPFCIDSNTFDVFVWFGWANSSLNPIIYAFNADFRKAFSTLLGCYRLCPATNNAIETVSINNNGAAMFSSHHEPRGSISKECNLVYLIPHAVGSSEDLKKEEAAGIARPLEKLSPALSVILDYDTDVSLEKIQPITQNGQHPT

Chain of 5-hydroxytryptamine receptor 1B (P28222 whole entry): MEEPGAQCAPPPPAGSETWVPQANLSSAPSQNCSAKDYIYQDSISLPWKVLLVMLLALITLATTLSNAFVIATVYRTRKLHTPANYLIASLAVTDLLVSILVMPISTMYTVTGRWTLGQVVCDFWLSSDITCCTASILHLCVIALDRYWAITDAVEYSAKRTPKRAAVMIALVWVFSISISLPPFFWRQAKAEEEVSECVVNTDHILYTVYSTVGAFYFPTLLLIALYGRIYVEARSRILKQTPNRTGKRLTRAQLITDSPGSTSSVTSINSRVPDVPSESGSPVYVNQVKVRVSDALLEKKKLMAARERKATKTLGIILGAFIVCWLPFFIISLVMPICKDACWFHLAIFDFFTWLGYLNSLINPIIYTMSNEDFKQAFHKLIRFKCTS
Chain of 5-hydroxytryptamine receptor 2B (P41595 whole entry): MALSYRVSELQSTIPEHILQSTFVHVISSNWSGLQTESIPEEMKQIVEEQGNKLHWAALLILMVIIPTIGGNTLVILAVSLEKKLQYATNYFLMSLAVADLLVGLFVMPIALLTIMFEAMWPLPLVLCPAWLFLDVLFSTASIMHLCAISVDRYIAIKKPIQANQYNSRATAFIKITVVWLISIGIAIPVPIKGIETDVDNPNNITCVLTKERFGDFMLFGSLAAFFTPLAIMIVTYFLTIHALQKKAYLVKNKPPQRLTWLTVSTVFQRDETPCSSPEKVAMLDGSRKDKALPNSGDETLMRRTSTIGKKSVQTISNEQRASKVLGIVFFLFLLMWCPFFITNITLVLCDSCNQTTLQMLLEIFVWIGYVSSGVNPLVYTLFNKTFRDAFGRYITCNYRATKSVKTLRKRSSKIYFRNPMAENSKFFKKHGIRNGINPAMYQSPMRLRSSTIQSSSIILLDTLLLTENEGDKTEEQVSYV
Chain of Beta-1 adrenergic receptor (Homo sapiens) (P08588 whole entry, looked up): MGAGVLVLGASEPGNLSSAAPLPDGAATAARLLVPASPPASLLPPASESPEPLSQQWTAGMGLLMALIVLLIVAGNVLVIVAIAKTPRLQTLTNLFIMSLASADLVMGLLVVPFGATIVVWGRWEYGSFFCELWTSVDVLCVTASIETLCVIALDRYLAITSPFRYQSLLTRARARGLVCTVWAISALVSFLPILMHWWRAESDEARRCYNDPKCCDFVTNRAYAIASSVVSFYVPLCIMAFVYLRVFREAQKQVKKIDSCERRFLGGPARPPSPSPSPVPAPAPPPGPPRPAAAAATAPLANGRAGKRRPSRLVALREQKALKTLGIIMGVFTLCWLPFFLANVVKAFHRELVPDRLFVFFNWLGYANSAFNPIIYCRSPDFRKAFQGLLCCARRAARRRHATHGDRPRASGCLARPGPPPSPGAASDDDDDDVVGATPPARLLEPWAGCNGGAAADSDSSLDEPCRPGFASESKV
Chain of Histamine H2 receptor (Homo sapiens) (P25021 whole entry): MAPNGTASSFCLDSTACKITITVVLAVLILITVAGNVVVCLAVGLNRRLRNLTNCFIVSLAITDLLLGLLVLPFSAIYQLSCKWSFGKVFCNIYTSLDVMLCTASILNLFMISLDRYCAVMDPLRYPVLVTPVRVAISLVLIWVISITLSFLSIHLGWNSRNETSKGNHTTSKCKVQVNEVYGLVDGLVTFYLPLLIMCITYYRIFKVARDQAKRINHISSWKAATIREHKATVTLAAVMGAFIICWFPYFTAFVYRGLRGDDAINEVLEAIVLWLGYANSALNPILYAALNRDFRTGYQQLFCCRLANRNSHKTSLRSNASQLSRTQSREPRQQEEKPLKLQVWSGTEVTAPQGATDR
Chain of Sodium-dependent dopamine transporter (Homo sapiens) (Q01959 whole entry): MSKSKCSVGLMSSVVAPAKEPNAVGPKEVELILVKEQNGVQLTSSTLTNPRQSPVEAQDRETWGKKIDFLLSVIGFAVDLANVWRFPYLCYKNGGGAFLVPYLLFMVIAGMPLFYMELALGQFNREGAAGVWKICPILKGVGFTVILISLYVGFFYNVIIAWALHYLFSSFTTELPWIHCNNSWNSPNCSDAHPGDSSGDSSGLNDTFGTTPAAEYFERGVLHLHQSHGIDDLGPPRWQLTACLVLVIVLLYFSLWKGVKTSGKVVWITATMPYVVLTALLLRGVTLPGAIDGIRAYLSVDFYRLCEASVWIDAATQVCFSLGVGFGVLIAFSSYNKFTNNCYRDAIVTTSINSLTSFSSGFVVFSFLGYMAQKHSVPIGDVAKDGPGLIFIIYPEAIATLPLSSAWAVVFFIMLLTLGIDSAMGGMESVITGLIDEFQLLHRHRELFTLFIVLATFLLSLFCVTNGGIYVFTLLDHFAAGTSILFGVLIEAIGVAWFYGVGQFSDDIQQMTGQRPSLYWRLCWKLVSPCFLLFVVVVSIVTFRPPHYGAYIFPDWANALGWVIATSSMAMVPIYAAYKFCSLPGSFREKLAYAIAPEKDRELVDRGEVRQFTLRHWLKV
Chain of 5-hydroxytryptamine receptor 1E (Homo sapiens) (P28566 whole entry): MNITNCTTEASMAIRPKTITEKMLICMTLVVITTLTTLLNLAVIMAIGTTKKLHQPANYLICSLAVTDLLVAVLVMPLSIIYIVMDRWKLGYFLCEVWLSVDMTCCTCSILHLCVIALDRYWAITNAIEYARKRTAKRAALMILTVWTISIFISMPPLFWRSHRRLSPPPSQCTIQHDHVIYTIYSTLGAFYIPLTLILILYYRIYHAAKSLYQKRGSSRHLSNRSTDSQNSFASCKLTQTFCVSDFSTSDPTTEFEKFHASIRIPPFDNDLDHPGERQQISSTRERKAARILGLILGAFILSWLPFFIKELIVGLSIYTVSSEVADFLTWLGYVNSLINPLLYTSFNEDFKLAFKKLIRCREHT
Chain of Sodium-dependent noradrenaline transporter (Homo sapiens) (P23975 whole entry): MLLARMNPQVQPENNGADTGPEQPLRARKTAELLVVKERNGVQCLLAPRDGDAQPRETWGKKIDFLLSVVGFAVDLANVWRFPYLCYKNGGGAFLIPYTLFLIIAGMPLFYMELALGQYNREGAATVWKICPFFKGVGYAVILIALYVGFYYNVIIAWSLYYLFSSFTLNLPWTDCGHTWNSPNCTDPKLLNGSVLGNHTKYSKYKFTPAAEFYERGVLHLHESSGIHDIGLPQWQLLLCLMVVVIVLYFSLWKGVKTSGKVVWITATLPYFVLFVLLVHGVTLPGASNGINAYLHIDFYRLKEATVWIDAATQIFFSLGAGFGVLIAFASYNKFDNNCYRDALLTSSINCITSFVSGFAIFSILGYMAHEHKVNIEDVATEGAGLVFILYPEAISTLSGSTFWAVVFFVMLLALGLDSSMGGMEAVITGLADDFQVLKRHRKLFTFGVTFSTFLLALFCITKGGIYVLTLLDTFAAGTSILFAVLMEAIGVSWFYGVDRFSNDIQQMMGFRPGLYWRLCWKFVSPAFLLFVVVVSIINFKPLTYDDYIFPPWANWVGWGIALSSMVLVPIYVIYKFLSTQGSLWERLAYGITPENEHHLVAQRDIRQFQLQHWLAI
Chain of Sodium-dependent serotonin transporter (Homo sapiens) (P31645 whole entry, looked up): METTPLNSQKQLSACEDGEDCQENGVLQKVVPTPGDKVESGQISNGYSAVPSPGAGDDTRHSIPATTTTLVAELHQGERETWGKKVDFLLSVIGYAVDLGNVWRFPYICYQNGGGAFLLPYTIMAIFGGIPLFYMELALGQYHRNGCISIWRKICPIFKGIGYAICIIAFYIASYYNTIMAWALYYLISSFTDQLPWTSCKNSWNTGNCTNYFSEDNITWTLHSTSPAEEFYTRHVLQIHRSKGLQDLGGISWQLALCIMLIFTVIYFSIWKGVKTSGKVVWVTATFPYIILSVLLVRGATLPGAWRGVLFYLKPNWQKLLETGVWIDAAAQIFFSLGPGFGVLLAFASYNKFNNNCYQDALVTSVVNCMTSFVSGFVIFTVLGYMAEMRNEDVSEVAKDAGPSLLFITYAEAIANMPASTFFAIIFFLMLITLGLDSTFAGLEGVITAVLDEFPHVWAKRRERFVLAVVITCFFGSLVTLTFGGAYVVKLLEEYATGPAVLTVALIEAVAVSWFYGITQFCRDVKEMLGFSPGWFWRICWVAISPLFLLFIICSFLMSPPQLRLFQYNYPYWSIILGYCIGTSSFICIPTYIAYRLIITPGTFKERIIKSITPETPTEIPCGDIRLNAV
Chain of 5-hydroxytryptamine receptor 5A (Homo sapiens) (P47898 whole entry): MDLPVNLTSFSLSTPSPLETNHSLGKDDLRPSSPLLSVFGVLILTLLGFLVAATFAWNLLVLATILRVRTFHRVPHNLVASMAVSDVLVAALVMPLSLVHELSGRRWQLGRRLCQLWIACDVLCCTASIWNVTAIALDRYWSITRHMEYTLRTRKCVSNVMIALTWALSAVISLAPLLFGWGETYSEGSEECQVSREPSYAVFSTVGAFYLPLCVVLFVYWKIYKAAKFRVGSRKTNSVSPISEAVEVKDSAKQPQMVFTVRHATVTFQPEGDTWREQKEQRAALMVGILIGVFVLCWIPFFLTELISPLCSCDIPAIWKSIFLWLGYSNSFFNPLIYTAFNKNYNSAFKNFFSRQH

inhibition [1] [%]	inhibition [2] [%]	inhibition [3] [%]	Ki [4] [µM]	inhibition [5] [%]	inhibition [6] [%]	inhibition [7] [%]	inhibition [8] [%]	inhibition [9] [%]	inhibition [10] [%]	inhibition [11] [%]	inhibition [12] [%]	inhibition [13] [%]	Ki [14] [µM]	inhibition [15] [%]	inhibition [16] [%]	inhibition [17] [%]	inhibition [18] [%]	Compound
< 50	< 50	< 50	> 10	< 50	< 50	< 50	< 50	< 50	< 50	< 50	< 50	< 50	> 10	< 50	< 50	< 50	< 50	C#CCOc1ccc(-c2nn3c(C)cc(C)nc3c2CC(=O)N(CC)CC)cc1
< 50	–	< 50	1.57	< 50	< 50	< 50	< 50	< 50	< 50	< 50	< 50	< 50	> 10	< 50	< 50	< 50	< 50	CCCCOc1ccc(-c2nn3c(C)cc(C)nc3c2CC(=O)N(CC)CC)cc1
< 50	< 50	< 50	> 10	< 50	< 50	< 50	< 50	< 50	< 50	< 50	< 50	< 50	> 10	< 50	< 50	–	< 50	CCCOc1ccc(-c2nn3c(C)cc(C)nc3c2CC(=O)N(CC)CC)cc1
< 50	< 50	< 50	> 10	< 50	< 50	< 50	< 50	< 50	< 50	< 50	< 50	< 50	> 10	< 50	< 50	< 50	< 50	CCOc1ccc(-c2nn3c(C)cc(C)nc3c2CC(=O)N(CC)CC)cc1
